Results as given in patent US20230192718A1, “BICYCLIC ENONE CARBOXYLATES AS MODULATORS OF TRANSPORTERS AND USES THEREOF” (NIROGY THERAPEUTICS, INC., priority 2018, published 2023).

How the values were obtained:
[1] = tested on: panel of solid and haemotological tumor cell lines; assay: MTS cell proliferation assay (cytotoxicity); type: cell-based; settings: 72 hours incubation, MTS readout
Procedure: MTS Cell Proliferation Assay
The anti-proliferation effect of MCT inhibition was investigated across a panel of solid and haemotological tumor cell lines. Cells were routinely cultured in their appropriate growth medium. On day 1, between 5,000-20,000 cells/well were plated into 96-well plates. 100 μL of phosphate buffered saline solution was added to the external wells to prevent media evaporation. Plates were incubated in growth medium overnight at 37° C. in the presence of 5% CO2. On day 2, dry weight compound stocks were dissolved to a concentration of 20 mM in 100% DMSO. Compounds were further diluted in the assay medium; 10 mM lactate medium (without glucose, pyruvate, and glutamine) or RPMI medium or appropriate medium to generate a final dose range of 10 nM to 100 μM. Growth medium in the 96-well plate was replaced with the assay medium (10 mM lactate medium or RPMI medium or appropriate medium), and compounds were added to each well in the plate at different concentrations via serial dilution or pre-prepared solutions in assay medium. Plates were then incubated at 37° C. in the presence of 5% CO2 for a further 72 hours. On day 5, 20 μL of CellTiter 96 AQ MTS reagent was added to each well and the plate was returned to the incubator for 2 hours. In case of lactate medium, the medium was replaced by 100 μL of growth medium and 20 μL of CellTiter 96 AQ MTS reagent. MTS is bioreduced by NADPH or NADH produced by dehydrogenase enzymes in metabolically active cells into a coloured formazan product that is soluble in tissue culture medium. The amount of coloured formazan product is directly proportional to the number of living cells in culture. The absorbance of the plates was read on a Synergy H4 plate reader using […] measurement wavelength. Dose response curves were plotted and IC50 values were calculated using GraphPrism. The IC50 value is equivalent to the concentration of compound that causes 50% inhibition of growth calculated from the compound treated signal to the vehicle treated signal.
MTT Cell Proliferation Assay
The MIT assay is a colorimetric assay for assessing cell viability similar to MTS assay. NAD(P)H-dependent cellular oxidoreductase enzymes may, under defined conditions, reflect the number of viable cells present. These enzymes are capable of reducing the tetrazolium dye MTT 3-(4,5-dimethylthiazol-2-yl)-2,5-diphenyltetrazolium bromide to its insoluble formazan, which has a purple color. MTT powder is dissolved in Dulbecco's Phosphate Buffered Saline, pH=7.4 (DPBS) to 5 mg/ml as stock solution. Cells and test compounds in 96-well plates were prepared containing a final volume of 100 μL/well as described in the MTS assay. The assay was performed similar to MTS assay above. […] The absorbance was read at 570 nm.

[2] = tested on: MDA-MB-231 human breast carcinoma cells; assay: Tumor xenograft model (orthotopic, NOD-SCID mice); type: in vivo; settings: nine days after start of treatment
Procedure: In order to test the in vivo efficacy of the invention, Example 9 was tested according to the protocol of Iorns to al. [Iorns E, Drews-Elger K, Ward T M, Dean S, Clarke J, Berry D, et al. (2012) A New Mouse Model for the Study of Human Breast Cancer Metastasis. PLoS ONE 7(10): e47995. https://doi.org/10.1371/journal.pone.0047995] Twenty-eight female NOD-SCID mice (Charles River) were injected orthotopically with basal MDA-MB-231 human breast carcinoma cells into the mammary fat pads. […] Mice were dosed qd with 30 mg/kg and 75 mg/kg p.o. of Example 9. At nine days after start of treatment tumor volume was roughly 50% of control in mice dosed at 30 mg/kg and roughly 30% of control in mice dosed at 75 mg/kg.

| SMILES | IC50 [1] [µM] | tumor volume, % of control ([2]; 30 mg/kg p.o. qd) | tumor volume, % of control ([2]; 75 mg/kg p.o. qd) |
| --- | --- | --- | --- |
| COc1cccc(C(=O)N(C)c2cc3oc(=O)c(C(=O)O)cc3s2)c1 [Example 9, 2-(3-methoxy-N-methylbenzamido)-5-oxo-5H-thieno[3,2-b]pyran-6-carboxylic acid] | < 1 | roughly 50 % of control | roughly 30 % of control |
| CN(Cc1ccc(F)cc1)c1cc2oc(=O)c(C(=O)O)cc2s1 [Example 2, 2-((4-fluorobenzyl)(methyl)amino)-5-oxo-5H-thieno[3,2-b]pyran-6-carboxylic acid] | < 1 | – | – |
| COc1ccccc1C(=O)N(C)c1cc2oc(=O)c(C(=O)O)cc2s1 [Example 17, 2-[(2-Methoxy-benzoyl)-methyl-amino]-5-oxo-5H-thieno[3,2-b]pyran-6-carboxylic acid] | < 1 | – | – |
| CN(Cc1ccccc1)c1cc2oc(=O)c(C(=O)O)cc2s1 [Example 1, 2-(benzyl(methyl)amino)-5-oxo-5H-thieno[3,2-b]pyran-6-carboxylic acid] | < 1 | – | – |
